In publication PMC3723252, “Trypanocidal Activity of Thioamide-Substituted Imidazoquinolinone: Electrochemical Properties and Biological Effects” (Evidence-based Complementary and Alternative Medicine : eCAM, 2013):
Where two headings read alike, the source gives them in different places.

Columns and labels:
[1] = system: Trypanosoma cruzi epimastigotes (Tulahuen strain); assay: Growth inhibition of epimastigotes (cell counting, 4 days); assay type: cell-based; settings: 96 h, read-out: Epimastigotes IC50
Protocol: (§1) Trypanosoma cruzi epimastigotes (Tulahuen strain) were grown as previously described. Bloodstream trypomastigotes were obtained from infected CF1 mice by cardiac puncture. Tulahuen strain expressing the β-galactosidase gene was kindly provided by Dr Buckner (University of Washington, USA).
(§2) Cells growth was assessed by counting the number of cells per mL of culture using a Neubauer chamber and was expressed as cellular density (CD). The percentage of inhibition (%I) was calculated as %I = {1 − [(CD4t − CD0)/(CD4c − CD0)]} × 100, where the different CDs represent the cellular density of CD4t, treated parasites on day 4; CD0, parasites on day 0; and CD4c, untreated parasites (control) on day 4.
(§3) The results presented are representative of three to four separate experiments, performed in duplicates or triplicates. All data are expressed as means ± standard errors of the mean (SEM). To calculate the IC50 values, the %I or %L values were plotted against the log of drug concentration (μM) and fitted with a straight line determined by a linear regression (Sigma Plot 10 software). The significance of differences was evaluated using Student' t test, taking a P < 0.05 as significant. Flow cytometry data were analyzed employing the WinMDI 2.9 software.

[2] = Cytotoxicity assay (MTT, 48 h); assay type: cell-based; settings: African green monkey, Vero cells
Protocol: Vero cells were cultivated with different concentrations of each compound (12.5–100.0 μM) or Bnz (3.0–3000 μM). After 48 h of incubation, cells were washed and viability was measured by the MTT assay as previously described. The selectivity index (SI) was calculated as the 50% cytotoxic concentration (CC50) obtained with Vero cells divided by the 50% inhibitory concentration (IC50) obtained with T. cruzi.

[3] = system: bloodstream trypomastigotes; assay: Trypanocidal effect on bloodstream trypomastigotes (24 h, mouse blood); assay type: cell-based; settings: Trypanosoma cruzi, % lysed parasites
Protocol: as §1
The trypanocidal effects of C1, C2, C3, D and Bnz were also tested on bloodstream trypomastigotes according to a standard WHO protocol slightly modified. Briefly, mouse blood containing trypomastigotes was treated with different concentrations of each compound (0.30 to 350 μM) or Bnz (0.38 to 38 μM). Plates were incubated for 24 h, and surviving parasites were counted in a Neubauer chamber as previously described. Results were expressed as the percentage of lysed parasites (%L) relative to the number of parasites in the control: %L = [1 − (CDt/(CDc)] × 100, where CDt and CDc represent the cellular density of treated and untreated parasites, respectively.
as §3

[4] = system: T. cruzi; assay: Effect of DTT, ascorbic acid and GSH on anti-T. cruzi activity of C1; assay type: cell-based, Trypanosoma cruzi
Protocol: as §2

[5] = system: Epimastigotes of T. cruzi; assay: Intracellular oxidative activity (H2DCFDA flow cytometry); assay type: cell-based, Trypanosoma cruzi; settings: 7.5, 15 and 22.5 μM; 5, 12 and 24 h; data not shown
Protocol: (§4) Epimastigotes of T. cruzi from a 4 days culture were incubated with C1 (7.5–22.5 μM) during 5–36 hours. Cells were harvested, washed and then the following biochemical assays were carried out.
(a) Assay of Intracellular Oxidative Activity. The intracellular oxidative activity was assessed by flow cytometry using the oxidant-sensitive fluorescent probe H2DCFDA. As a positive control cells were treated with 0.1 mM H2O2. Stained cells were then analyzed by a FACSCalibur flow cytometer (Becton Dickinson) with an excitation wavelength of 480 nm and an emission wavelength of 530 nm. Flow cytometry results were expressed by the ratio Gmt/Gmc, where Gmt and Gmc correspond to the geometric mean of histograms obtained for treated and untreated cells, respectively.

[6] = system: Epimastigotes of T. cruzi; assay: Parasite death by Annexin V-FITC/PI staining (flow cytometry); assay type: cell-based, Trypanosoma cruzi; settings: for early apoptotic cells / late apoptotic cells: 22.5 μM; for early apoptotic cells: 0.8% at 0 h; for late apoptotic cells: 2.8% at 0 h; for viability at 22.5 µM: Trypanosoma cruzi, 95.9% for control (0 h), read-out: viable nonapoptotic cells
Protocol: as §4
Cell viability and phosphatidylserine (PS) exposure on the parasite surface were assessed by propidium iodide (PI) and Annexin V-fluorescein isothiocyanate (FITC) staining, according to the manufacturer's instructions (Invitrogen). Epimastigotes exposed to 30% fresh human serum for 2 h at 28°C were used as positive control. Parasites were analysed by flow cytometry acquiring 20,000 events per sample.

[7] = system: Epimastigotes of T. cruzi; assay: Determination of total thiol groups (DTNB); assay type: cell-based, Trypanosoma cruzi
Protocol: as §4
(c) Determination of Total Thiol Groups. The thiol groups content was determined employing the chromogenic compound 5,5′-dithiobis-2-nitrobenzoate (DTNB), as already described.

[8] = Cyclic voltammetry; assay type: physicochemical
Protocol: Cyclic voltammograms for C1, C2, and C3 dissolved in 1% DMSO were carried out using an EQMAT instrument with an EQSOFT Processor, at a sweep rate of 0.2 V/s under a nitrogen atmosphere at room temperature, employing lithium perchlorate as supporting electrolyte. A three-electrode cell was used equipped with a vitreous carbon as working electrode, a gold wire as auxiliary electrode, and a saturated calomel as reference electrode.

[9] = system: Epimastigotes of T. cruzi; assay: Mitochondrial membrane potential (DiOC6 staining); assay type: cell-based, Trypanosoma cruzi; settings: 22.5 μM, 31% for the control (0 h)
Protocol: as §4
(§5) Mitochondrial membrane potential was assessed using two well-established assays: 3,3′-dihexyloxacarbocyanine iodide (DiOC6) staining and the cytochrome c release.
For the DiOC6 assay, epimastigotes (10^6) were permeabilized for 20 min at room temperature with 0.01% saponin, washed, and incubated with 30 nM DiOC6 for 30 min at 37°C. The positive control was done with 250 nM trifluoromethoxy carbonyl cyanide phenyl hydrazone (FCCP) as depolarizing agent. Stained cells were analyzed by flow cytometry with an excitation wavelength of 484 nm and an emission wavelength of 511 nm.

[10] = system: Epimastigotes of T. cruzi; assay: Cytochrome c release (Western blot, densitometry); assay type: cell-based, Trypanosoma cruzi; settings: 22.5 μM, at 36 h, relative to level detected after 24 h
Protocol: as §4, §5
To evaluate the cytochrome c release, parasites (3 × 10^8) were resuspended in PBS containing 200 μg/mL digitonin, incubated on ice for 15 min and then centrifuged at 9 000 ×g for 10 min at 4°C. Both, mitochondrial-rich fraction (pellet, resuspended in 50 μL of PBS) and cytosolic fraction (150 μL) were subjected to Western-blot analysis for cytochrome c. Protein extracts (10 μL and 30 μL of mitochondrial and cytosolic fractions, resp.) were resolved by 14% SDS/PAGE, transferred to nitrocellulose membranes, blocked with 3% skimmed milk in PBS, and then incubated with specific antibodies, according to the protocol of Piacenza et al.. Relative intensities of bands were quantified by densitometry using Scion Image software (Scion). Results were expressed in arbitrary units.

[11] = system: ascorbate peroxidase (APx); assay: APx activity in C1-treated epimastigotes; assay type: cell-based, Trypanosoma cruzi; settings: control without C1 = 100%
Protocol: as §4
(§6) (b) Determination of Antioxidant Enzymes Activity. The activities of superoxide dismutase (SOD), ascorbate peroxidase (APx), and trypanothione reductase (TryR) were assayed as previously established.
(§7) Protein concentration was determined according to the method described by Lowry et al.. These values were used to express the specific enzymatic activities as activity per mg of protein.

[12] = system: trypanothione reductase (TryR); assay: TryR activity in C1-treated epimastigotes; assay type: cell-based, Trypanosoma cruzi; settings: control without C1 = 100%
Protocol: as §4, §6, §7

[13] = system: amastigotes (Tulahuen strain expressing the β-galactosidase gene) in J774 cells; assay: Amastigote assay in infected J774 cells (β-galactosidase, CPRG); assay type: cell-based; settings: Trypanosoma cruzi, 168 h, 7 days
Protocol: as §1
For analysis of amastigotes, J774 cells were infected with bloodstream trypomastigotes expressing the β-galactosidase gene at a parasite: cell ratio of 10 : 1. After 24 h, cell cultures were washed and each compound (2 to 100 μM) was added in fresh RPMI medium without phenol red (to avoid interference with absorbance readings at 570 nm). After 7 days, the assay was developed as described. The galactosidase activity was quantified using CPRG as substrate and measuring absorbance at 570 nm in a Microplate Reader (Bio-Rad Laboratories). Since the assayed compounds are coloured, blanks including uninfected cells with different doses of each compound were performed. The percentage of inhibition was calculated as %I = {1 − [(A it − A nit)/(A ic − A nic)]} × 100, where A represents the mean A 570 value recorded for A it, treated infected cells; A nit, treated noninfected cells; A ic, untreated infected cells; and A nic, untreated noninfected cells.
as §3

[14] = system: superoxide dismutase (SOD); assay: SOD activity in C1-treated epimastigotes; assay type: cell-based, Trypanosoma cruzi; settings: control without C1 = 100%
Protocol: as §4, §6, §7

[15] = 1% DMSO, sweep rate 0.2 V/s, saturated calomel reference electrode

Structure (SMILES): O=C(Cn1ccnc1[N+](=O)[O-])NCc1ccccc1 [Bnz, Benznidazole, reference compound]
- IC50 [1]: 5.49 ± 0.89 µM
- CC50 at 48 h [2]: 82.8 ± 2.75 µM
- IC50 [3]: 30.3 ± 2.85 µM

Structure (SMILES): O=c1c2ccccc2c(C(=S)Nc2ccccc2)c2n1CCN2 [Compound C1, N-phenyl-5-oxo-1,2,3,5-tetrahydroimidazo[1,2-b]isoquinolin-10-carbothioamide]
- effect of DTT and ascorbic acid on the inhibitory action of the drug ([4]; C1 1 up to 2.5 μM, at the antioxidant concentrations tested): considerably enhanced
- effect of GSH on the inhibitory effect of C1 ([4]; GSH 5 μM): completely abrogated
- ratio Gmt/Gmc (H2DCFDA fluorescence) [5]: around 1
- early apoptotic cells ([6]; 24 h): 8.7%
- late apoptotic cells ([6]; 24 h): 4.9%
- early apoptotic cells ([6]; 36 h): 51.0%
- late apoptotic cells ([6]; 36 h): 7.7%
- viability at 22.5 µM ([6]; 24 h): 84.8%
- viability at 22.5 µM ([6]; 36 h): 40.4%
- decrease of low molecular mass thiols ([7]; 22.5 μM, 24 h of incubation): not more than 20%
- level of low molecular mass thiols ([7]; all C1 concentrations tested, 5 and 12 h, data not shown): remain constant
- IC50 [1]: 1.49 ± 0.28 µM
- IC50 [3]: 34.9 ± 1.2 µM
- anodic peak (irreversible oxidation) [8, 15]: 0.78 V
- cathodic peak (irreversible reduction) [8, 15]: −1.04 V
- Depolarized cells ([9]; 24 h): 77%
- Depolarized cells ([9]; 36 h): 84%
- increase of cytochrome c in the parasite cytosol [10]: 2.5–3 times
- APx activity (%) ([11]; 5 h, 7.5 µM): 111.26 ± 7.60%
- APx activity (%) ([11]; 5 h, 15.0 µM): 98.31 ± 2.10%
- APx activity (%) ([11]; 5 h, 22.5 µM): 105.20 ± 6.20%
- APx activity (%) ([11]; 12 h, 7.5 µM): 98.30 ± 2.30%
- APx activity (%) ([11]; 12 h, 15.0 µM): 95.91 ± 4.10%
- APx activity (%) ([11]; 12 h, 22.5 µM): 93.48 ± 6.20%
- APx activity (%) ([11]; 24 h, 7.5 µM): 108.35 ± 9.20%
- APx activity (%) ([11]; 24 h, 15.0 µM): 105.30 ± 6.56%
- APx activity (%) ([11]; 24 h, 22.5 µM): 96.25 ± 5.80%
- TryR activity (%) ([12]; 5 h, 7.5 µM): 152.23 ± 6.38 %
- TryR activity (%) ([12]; 5 h, 15.0 µM): 177.17 ± 15.56 %
- TryR activity (%) ([12]; 5 h, 22.5 µM): 143.89 ± 4.80 %
- TryR activity (%) ([12]; 12 h, 7.5 µM): 188.60 ± 12.30 %
- TryR activity (%) ([12]; 12 h, 15.0 µM): 251.62 ± 15.56 %
- TryR activity (%) ([12]; 12 h, 22.5 µM): 190.55 ± 14.29 %
- TryR activity (%) ([12]; 24 h, 7.5 µM): 165.23 ± 9.80 %
- TryR activity (%) ([12]; 24 h, 15.0 µM): 198.27 ± 9.30 %
- TryR activity (%) ([12]; 24 h, 22.5 µM): 163.56 ± 7.60 %
- IC50 [13]: 1.74 ± 0.3 µM
- SOD activity (%) ([14]; 5 h, 7.5 µM): 95.85 ± 2.50%
- SOD activity (%) ([14]; 5 h, 15.0 µM): 99.31 ± 4.30%
- SOD activity (%) ([14]; 5 h, 22.5 µM): 90.09 ± 2.30%
- SOD activity (%) ([14]; 12 h, 7.5 µM): 99.75 ± 2.90%
- SOD activity (%) ([14]; 12 h, 15.0 µM): 103.92 ± 4.30%
- SOD activity (%) ([14]; 12 h, 22.5 µM): 88.48 ± 3.20 %
- SOD activity (%) ([14]; 24 h, 7.5 µM): 98.74 ± 7.30%
- SOD activity (%) ([14]; 24 h, 15.0 µM): 89.78 ± 3.50 %
- SOD activity (%) ([14]; 24 h, 22.5 µM): 78.27 ± 4.20 %

Structure (SMILES): O=c1c2ccccc2c(C(=S)Nc2ccc(Cl)cc2)c2n1CCN2 [Compound C2, N-(4-chlorophenyl)-5-oxo-1,2,3,5-tetrahydroimidazo[1,2-b]isoquinolin-10-carbothioamide]
- IC50 [1]: 5.57 ± 0.53 µM
- IC50 [3]: 306 ± 15 µM
- IC50 [13]: 3.63 ± 0.51 µM

Structure (SMILES): Cc1ccc(NC(=S)c2c3n(c(=O)c4ccccc24)CCN3)cc1 [Compound C3]
- IC50 [1]: 1.5 ± 0.3 µM
- IC50 [3]: 246 ± 18 µM
- IC50 [13]: 1.5 ± 0.32 µM

Structure (SMILES): O=C(Nc1ccccc1)c1c2n(c(=O)c3ccccc13)CCN2 [D, 5-oxo-N-phenyl-1,2,3,5-tetrahydroimidazo[1,2-b]isoquinolin-10-carboxamide]
- IC50 [1]: > 25 µM
- IC50 [3]: > 300 µM
- IC50 [13]: 11.4 ± 1.21 µM

Structure (SMILES): O=c1c2ccccc2cc2n1CCN2 [heterocycle precursor, 2,3-dihydroimidazo[1,2-b]isoquinolin-5(1-H)-one]
- IC50 [1]: > 25 µM
- cathodic and anodic peaks ([8]; subjected to the same potentials as C1): Neither the cathodic nor the anodic peaks were measurable
